According to US20130005696A1, “BUFADIENOLIDE DERIVATIVES, PREPARING PROCESS THEREOF, COMPOSITION COMPRISING THE SAME AND THE USE THEREOF” (priority 2011, published 2013):

Key:
[1] = system: HeLa human cervical carcinoma cell line; assay: In vitro antitumor activity assay (SRB), HeLa; format: cell-based; conditions: read-out: IC50, inhibitory activity on cell proliferation of HeLa cell line
Description: (§1) HeLa human cervical carcinoma cell line, A-549 human non-small cell lung carcinoma cell line, NCI-H2228 human lung carcinoma cell line, NCI-H460 human lung carcinoma cell line, MDA-MB-231 human breast carcinoma cell line, MCF-7 human breast carcinoma cell line, Bel-7402 human hepatic carcinoma cell line, Hep3B human hepatic carcinoma cell line, QGY-7703 human hepatic carcinoma cell line, MV-4-11 human leukemic cell line, DAUDI human leukemic cell line, Jurkat human leukemic cell line, A498 renal carcinoma cell line, LoVo human colon carcinoma cell line, HCT1116 human colon carcinoma cell line, A431 human skin carcinoma cell line, PANC-1 human pancreatic carcinoma cell line, U87-MG human brain carcinoma cell line, SH-SY5Y human brain carcinoma cell line, RPMI-8226 human bone carcinoma cell line, HT1080 human fibrosarcoma cell line, PC-3 human prostatic carcinoma cell line, AGS human gastric adenocarcinoma cell line, and BGC-823 human gastric adenocarcinoma cell line were purchased from the Cell Bank of the Chinese Academy of Sciences.
(§2) The positive control is bufalin (formulated according to the common method), its purity is 98% or more by HPLC-UV and its structure is identified by NMR. The compounds to be tested and the positive control were diluted with normal saline with a concentration gradient of 10^−4 M, 10^−5 M, 10^−6 M, 10^−7 M and 10^−8 M.
(§3) According to cell growth rate, tumor cells in the log phase of growth were seeded into 96-well culture plates at 100 μL per well, and allowed to attach for 24 hours, followed by addition of a test compound or positive control at 10 μL per well. For each concentration, the test was carried out in triplicate wells. Solvent control wells with addition of normal saline into cell culture and a blank well containing only cell culture medium but without cells for zeroing were also included. The tumor cells were incubated for 72 hours at 37° C. under 5% CO2, and then the culture medium (RPMI-1640) was removed. The cells were fixed with 10% cool TCA by incubating for 1 h at 4° C., washed with distilled water for 5 times, and dried naturally in the air. A solution of SRB (Sigma) (4 mg/mL) in 1% glacial acetic acid was added at 100 μL per well, and the cells were stained for 15 minutes at room temperature, and the supernatant was discarded. The plates were washed for 5 times with 1% acetic acid, and dried in air. Finally, Tris solution was added at 150 μL per well, and the absorbance (A) was measured at a wavelength of 515 nm using a microplate reader. The growth inhibition on tumor cell proliferation was calculated according to the following equation:
(§4) Growth Inhibition (%)=[(Absorbance of negative control−Absorbance of blank)−(Absorbance of sample−Absorbance of blank)]/(Absorbance of negative control−Absorbance of blank)×100%
(§5) Drug concentration: 10 μM, 1 μM, 0.1 μM, 10 nM, 1 nM, 0.1 nM.
(§6) IC50 was fitted by GraphPad Prism 4.

[2] = system: LoVo human colon carcinoma cell line; assay: In vitro antitumor activity assay (SRB), LoVo; format: cell-based; conditions: Table 2, read-out: IC50, inhibition of cell proliferation, LoVo
Description: as §1, §2, §3, §4, §5, §6

[3] = system: MCF-7 human breast carcinoma cell line; assay: In vitro antitumor activity assay (SRB), MCF-7; format: cell-based; conditions: Homo sapiens, MCF7; MCF-7, Table 2; read-out: IC50, inhibition of cell proliferation, MCF-7
Description: as §1, §2, §3, §4, §5, §6

[4] = system: PC-3 human prostatic carcinoma cell line; assay: In vitro antitumor activity assay (SRB), PC-3; format: cell-based; conditions: Homo sapiens, Prostatic carcinoma cell; PC-3, Table 2; read-out: IC50, inhibition of cell proliferation, PC-3
Description: as §1, §2, §3, §4, §5, §6

[5] = system: A-549 human non-small cell lung carcinoma cell line; assay: In vitro antitumor activity assay (SRB), A549; format: cell-based; conditions: Homo sapiens; A549, Table 2; read-out: IC50, inhibition of cell proliferation, A549
Description: as §1, §2, §3, §4, §5, §6

[6] = system: human-derived leukaemia MV-4-11 xenograft; assay: Therapeutic effect against MV-4-11 xenograft in nude mice; format: in vivo, Balb/c nude mice
Procedure: (§7) This experiment is to investigate the in vivo inhibitory effect of II1E-01.HCl on growth of human-derived hepatic carcinoma HepG2 cell, human-derived breast carcinoma MDA-MB-231 cell, human-derived lung carcinoma H460 cell, human-derived colon carcinoma HCT-116 cell, human-derived […] MV-4-11 cell xenografts in nude mice.
(§8) Formulation of solvent control (5% anhydrous ethanol & 5% aqueous glucose solution): 2.5 mL anhydrous ethanol was added into a 50 mL tube, followed by addition of 47.5 mL 5% glucose solution for injection followed by shaking, and stored at room temperature before use.
(§9) Formulation of the preparations of the compounds to be tested: formulations with concentrations of 0.4 mg/mL and 0.6 mg/mL were prepared respectively. An appropriate amount of II1E-01.HCl was weighted and put into a 50 mL tube, followed by addition of corresponding volume of solvent to get the desired concentration and mixed using a vortex mixer. After the solid was dissolved completely, the solution was subpackaged into 4 mL vials and stored at refrigerated condition (2-8° C.) until use.
(§10) Experimental animals: Balb/c nude mice (male, six weeks old).
MV-4-11 cells were in vitro cultured to be proliferated. The cells in the log phase of growth were collected and resuspended in IMDM serum-free medium, and then implanted subcutaneously into the axilla of the right forelimb of nude mice. After 37 days, the tumor size reached about 270 mm^3. The mice bearing the tumor were grouped by randomized block method according to the tumor size into 3 groups, which contain 6 mice in each group and include the group of solvent control, group of positive control (Sunitinib 40 mg/kg), and group of the testing compound II1E-01.HCl (4 mg/kg QOD). In the positive control group, sunitinib was administered intragastrically once daily (QD). In the group of II1E-01.HCl, II1E-01.HCl was administered intravenously at tail once every other day (QOD). The animals were given the drugs for 21 days, during which the growth of tumor and the body weight of the mice were observed.
After continuously administering for 21 days (the 58th day after the implantation), the tumor weight and inhibition rate were calculated, and results are listed in Table 9. […] In the group of the testing compound II1E-01.HCl (4 mg/kg QOD), the tumor also completely disappeared at 14th day after administration, and the inhibition rate was 100.00% (P<0.01) at the end of the experiment.

[7] = system: human hepatic carcinoma HepG2 xenograft; assay: Therapeutic effect against HepG2 xenograft in nude mice; format: in vivo, Balb/c nude mice; conditions: 10 mg/kg iv, QW × 14 d; for Inhibition Rate (%): 10 mg/kg
Procedure: as §7, §8, §9, §10
HepG2 cells were in vitro cultured to be proliferated. The cells in the log phase of growth were collected and resuspended in DMEM serum-free medium, and then implanted subcutaneously into the axilla of the right forelimb of nude mice. After 11 days, the tumor size reached about 250 mm^3. The mice bearing the tumor were grouped according to the tumor size into 6 groups, including the group of solvent control, groups of positive controls (Rapamycin 10 mg/kg and Vinorelbine 8 mg/kg), and groups of low (2 mg/kg), middle (4 mg/kg) and high (6 mg/kg) dosages of the testing compound II1E-01.HCl. Each group was administered intravenously at tail. In the solvent control group, the solvent control solution was administered intravenously once every other day (QOD). In the low, middle and high dosage groups of II1E-01.HCl, II1E-01.HCl was administered intravenously once every other day (QOD). In the positive control groups, Rapamycin 10 mg/kg and Vinorelbine 8 mg/kg were administered once a week (QW). The animals were given the drugs for two weeks. In the two week time period, the growth of tumor and the body weight of the mice were observed.
Two weeks after administering (the 25th day after the implantation), the tumor weight and inhibition rate were calculated, and results are listed in Table 5.

[8] = system: human non-small cell lung carcinoma A549 xenograft; assay: In vivo therapeutic effect against A549 xenograft in nude mice; conditions: A549 xenograft, 5 mg/kg iv QW, after 21 days
Procedure: This experiment is to evaluate the in vivo therapeutic effects of compounds bufalin, II1D-06.HCl, II1E-01.HCl and II1B-02.HCl against human-derived lung carcinoma A549 cell xenograft in nude mice.
Solvent control: 4% DMSO & 2% Tween-80 & 5% PEG-400 solution in normal saline
Compounds to be tested: bufalin, II1B-02.HCl, II1E-01.HCl, II1D-06.HCl
Formulating method: the compound was dissolved with DMSO into a stock solution, which was then diluted into an injection with a final DMSO concentration of 4%.
Positive control: Rapamycin Formulating method: it was formulated into an injection with a final DMSO concentration of 4%.
After the tumor size reaches about 200 mm^3, the mice bearing the tumor were grouped randomly into 8 groups according to the tumor size, including the groups of solvent control, positive control rapamycin 5 mg/kg, II1E-01.HCl 2 mg/kg, II1E-01.HCl 4 mg/kg, II1E-01.HCl 6 mg/kg, II1B-02.HCl 4 mg/kg, II1D-06.HCl 4 mg/kg, bufalin 1.6 mg/kg, wherein the dosage selection is based on that the maximum tolerable dosage is 1.6 mg/kg for bufalin and 6 mg/kg for II1E-01.HCl. Rapamycin was administered intravenously once a week (QW) and the other groups were administered intraperitoneally once every other day (QOD). The tumor was weighted after 21 days to calculate the inhibition rate. The equation for calculating inhibition rate (IR) is IR=(WC−WT)/WC×100%, wherein, WC represents the tumor weight of the control group, and WT represents the tumor weight of the treating group.

| SMILES | IC50 [1] [nM] | IC50 [2] [nM] | IC50 [3] [nM] | IC50 [4] [nM] | IC50 [5] [nM] | day after administration at which the tumor completely disappeared ([6]; 40 mg/kg ig QD) [days] | Tumor Weight(g) Mean ± SE ([6]; 40 mg/kg ig, QD × 21 d) [g] | Inhibition Rate (%) ([6]; 40 mg/kg ig, QD × 21 d, 40 mg/kg) | Tumor Weight(g) Mean ± SE [7] [g] | Inhibition Rate (%) [7] [%] | Inhibition Rate (%) ([7]; listed as Rapamycin) | Inhibition Rate (%) [8] [%] | Tumor Weight(g) Mean ± SE [8] [g] |
| --- | --- | --- | --- | --- | --- | --- | --- | --- | --- | --- | --- | --- | --- |
| CCN(CC)CCNC(=O)O[C@H]1CC[C@@]2(C)[C@H](CC[C@@H]3[C@@H]2CC[C@]2(C)[C@@H](c4ccc(=O)oc4)CC[C@]32O)C1 [II1B-02] | 3.73 | 15.7 ± 1.67 | 18.8 ± 2.68 | 20.1 ± 4.08 | 0.39 ± 0.08 |  |  |  |  |  |  |  |  |
| CN(C)CCN(C)C(=O)O[C@H]1CC[C@@]2(C)[C@H](CC[C@@H]3[C@@H]2CC[C@]2(C)[C@@H](c4ccc(=O)oc4)CC[C@]32O)C1 [II1B-03] | 1.58 | 13.4 ± 3.37 | 10.6 ± 3.04 | 27.3 ± 2.46 | 2.81 ± 0.43 |  |  |  |  |  |  |  |  |
| CCNCCNC(=O)O[C@H]1CC[C@@]2(C)[C@H](CC[C@@H]3[C@@H]2CC[C@]2(C)[C@@H](c4ccc(=O)oc4)CC[C@]32O)C1 [II1B-05] | 1.65 | 14.4 ± 0.76 | 7.98 ± 1.9 | 12.6 ± 0.86 | 2.83 ± 0.9 |  |  |  |  |  |  |  |  |
| C[C@]12CC[C@H](OC(=O)N3CCCNCC3)C[C@H]1CC[C@@H]1[C@@H]2CC[C@]2(C)[C@@H](c3ccc(=O)oc3)CC[C@]12O [II1D-06] | 0.45 | 0.58 ± 0.29 | 2.13 ± 0.29 | 1.25 ± 0.46 | 0.87 ± 0.02 |  |  |  |  |  |  |  |  |
| C[C@]12CC[C@H](OC(=O)NCC3CCCCN3)C[C@H]1CC[C@@H]1[C@@H]2CC[C@]2(C)[C@@H](c3ccc(=O)oc3)CC[C@]12O (stereo partly drawn) [II1E-03] | 0.8 | 23.4 ± 3.68 | 31 ± 3.07 | 14.8 ± 1.12 | 0.58 ± 0.17 |  |  |  |  |  |  |  |  |
| CCN(CC)CCNC(=O)c1c(C)[nH]c(/C=C2\C(=O)Nc3ccc(F)cc32)c1C [Sunitinib, reference compound] |  |  |  |  |  | 10 | 0.0000 ± 0.0000 | 100.00 |  |  |  |  |  |
| CO[C@H]1C[C@@H]2CC[C@@H](C)[C@@](O)(O2)C(=O)C(=O)N2CCCC[C@H]2C(=O)O[C@H]([C@H](C)C[C@@H]2CC[C@@H](O)[C@H](OC)C2)CC(=O)[C@H](C)/C=C(\C)[C@@H](O)[C@@H](OC)C(=O)[C@H](C)C[C@H](C)/C=C/C=C/C=C/1C [rapamycin, Rapamycin, reference compound] |  |  |  |  |  |  |  |  | 0.4806 ± 0.0269 | 37.23 | 37.23 | 58.86 | 0.6925 ± 0.0652 |
